In patent US20040009904A1, “APL immunoreactive peptides, conjugates thereof and methods of treatment for aPL antibody-mediated pathologies” (priority 1995, published 2004):
Bridge positions count the residues as written; N and C are the ends. Square brackets hold non-standard residues; d marks the D form. Peptide text beside a SMILES is read from it. NMeL = CN[C@@H](CC(C)C)C(=O)O; Phg = N[C@H](C(=O)O)c1ccccc1; Orn = NCCC[C@H](N)C(=O)O; Aib = CC(C)(N)C(=O)O

Each compound was assayed against ACA-6501 (assay: Competitive binding peptide ACA ELISA, cardiolipin/β2-GPI-coated plates). Conditions: Optimization of Peptide 3G3; inf = no 50% inhibition.
Set-up: species or system human
Method: A variation of this assay uses microtitration plates coated with human β2-glycoprotein I/cardiolipin (β2-GPI/CL) instead of tetravalent peptide and tests the ability of monomeric peptides to block the binding of aPL antibody to the epitope(s) on β2-GPI/CL. In this assay, IgG-depleted human serum at an optimized concentration is used as a source of β2-GPI. The monomeric peptides at several concentrations are incubated with an optimized concentration of aPL antibody in a manner analogous to the assay which employs tetravalent peptide as a plate substrate. Following the incubation of aPL/peptide in (β2-GPI/CL) plates, antibody binding and the peptide concentration required for 50% inhibition is determined at half-maximal absorbance as in the tetravalent assay.
Peptide sequences for all five peptides immediately follow the table. All were tested using the competitive binding peptide ACA ELISA using CL/β2-GPI plates as described herein.
(B) Immulon I® 96-well, flat-bottom, polystyrene microtitration plates (Dynatech Laboratories, Inc., Chantilly, Va.) were coated with 30 μL/well of cardiolipin (CL, 50 μg; Sigma Chemical Co., St. Louis, Mo.) in ethanol. Two control wells received 30 μL ethanol only. After overnight evaporation at 4° C., each well was blocked with 200 μL of 5% (w/v) fish gelatin in PBS for 2 hours at RT.
During this incubation, variable amounts of each of six peptides were mixed with 22 μL ACA-6501 serum diluted with 3% fish gelatin in 1:1 TBS/PBS (final dilution of 1:400) in a final volume of 220 μL using Eppendorf microcentrifuge tubes. Specifically, in tube #1 were mixed 181.3 μL of 3% fish gelatin in TBS-PBS, 16.7 μL of peptide stock solution plus 22 μL of ACA-6501 serum diluted 40 times in 3% fish gelatin/TBS-PBS. Stock solutions ranged from 450-800 μg/mL for peptides #951 (diserine non-cyclized negative control), #952 (a lot of LJP 690), and thioethers CCTE-3G3, CHTE-3G3, HCTE-3G3 and HHTE-3G3. To tube #2 the following were added: 148 μL fish gelatin/TBS-PBS, […] of peptide stock solution, plus 22 μL of 40 times diluted ACA-6501 serum. Tube #3 contained 48 μL fish gelatin/TBS-PBS, […] of peptide stock solution, plus 22 μL of 40 times diluted ACA-6501 serum. The control tube #4 received 396 μL fish gelatin/TBS-PBS and 44 μL of 40 times diluted ACA-6501 serum (no peptide). Each of the tubes incubated for approximately 1 hour at RT.
The CL/β2-GPI microtitration plate was washed 5 times with TBS and 100 μL aliquots in duplicate from Eppendorf tubes #1, 2, 3, and 4 containing the antibody-peptide (or no peptide mixtures) were added to the wells. A volume of 100 μL from tube #4 was added to the duplicate control wells containing no cardiolipin. The microtitration plate was incubated for 1 hour at RT with agitation at 40 rpm in an orbital shaker (American Scientific, Rotator V), washed 5 times with TBS and then 100 μL of 1:1000 goat anti-human IgG alkaline phosphatase conjugate (Zymed, Cat No. 62-8422) in 0.5% (w/v) BSA-TBS was added. Following incubation for 1 hour at RT, the microtitration plate was again washed 5 times with TBS and the colorimetric enzyme detection developed by adding 100 μL of PMPP solution (7.8 g phenolphthalein monophosphate plus 69.5 g of 2-amino-2-methyl-1-propanol in 100 mL water stock solution diluted 1:26 with water). After 21 minutes, the reaction was stopped by adding 50 μL of 0.2 M Na2HPO4 (Mallinckrodt) to each well. Absorbance at 550 nm was read in a microplate reader (Bio-Tek Instruments, Model EL 311). The amount of peptide that inhibited ACA-6501 binding by 50%, the IC50, was calculated from the graph at the intersection of half-maximal absorbance with amount of peptide added.

SMILES	with ACA 6501 150 ug/mL [µg/mL]
CC(C)C[C@@H]1NC(=O)[C@@H](NC(=O)[C@@H]2CCCN2C(=O)CNC(=O)[C@H](C)N)CSSC[C@@H](C(=O)NCC(=O)O)NC(=O)[C@H](CC(C)C)NC(=O)[C@H](CCCCN)NC(=O)CNC(=O)[C@H](CC(C)C)NC(=O)[C@H](C(C)C)NC(=O)CNC1=O [A G P C L G V L G K L C G] (H-AGPCLGVLGKLCG-OH; disulfide 4-12)	450
CC(C)C[C@@H]1NC(=O)[C@H](CCCCN)NC(=O)CNC(=O)[C@H](CC(C)C)NC(=O)[C@H](C(C)C)NC(=O)CNC(=O)[C@H](C)NC(=O)[C@@H](N)CSSC[C@@H](C(=O)O)NC1=O [C A G V L G K L C] (H-CAGVLGKLC-OH; disulfide 1-9)	200
CC(C)C[C@@H]1NC(=O)[C@H](CCCCN)NC(=O)CNC(=O)[C@H](CC(C)C)NC(=O)[C@H](C(C)C)NC(=O)CNC(=O)CNC(=O)[C@@H](N)CSSC[C@@H](C(=O)O)NC1=O [C G G V L G K L C] (H-CGGVLGKLC-OH; disulfide 1-9)	310
CC[C@H](C)[C@@H]1NC(=O)[C@@H](N)CSSC[C@@H](C(=O)O)NC(=O)[C@H](CC(C)C)NC(=O)[C@H](CCCCN)NC(=O)CNC(=O)[C@H](CC(C)C)NC(=O)[C@H](C(C)C)NC(=O)CNC1=O [C I G V L G K L C] (H-CIGVLGKLC-OH; disulfide 1-9)	60
CC(C)C[C@@H]1NC(=O)[C@H](CCCCN)NC(=O)CNC(=O)[C@H](CC(C)C)NC(=O)[C@H](C(C)C)NC(=O)[C@H](C)NC(=O)[C@H](CC(C)C)NC(=O)[C@@H](N)CSSC[C@@H](C(=O)O)NC1=O [C L A V L G K L C] (H-CLAVLGKLC-OH; disulfide 1-9)	170
CC(C)C[C@@H]1NC(=O)[C@H](C)NC(=O)CNC(=O)[C@H](CC(C)C)NC(=O)[C@@H](N)CSSC[C@@H](C(=O)O)NC(=O)[C@H](CC(C)C)NC(=O)[C@H](CCCCN)NC(=O)CNC1=O [C L G A L G K L C] (H-CLGALGKLC-OH; disulfide 1-9)	260
CC(C)C[C@@H]1NC(=O)[C@H](CCCCN)NC(=O)CNC(=O)[C@H](CC(C)C)NC(=O)[C@@H]2CCCN2C(=O)CNC(=O)[C@H](CC(C)C)NC(=O)[C@@H](N)CSSC[C@@H](C(=O)O)NC1=O [C L G P L G K L C] (H-CLGPLGKLC-OH; disulfide 1-9)	180
CC(C)C[C@@H]1NC(=O)[C@H](C(C)C)NC(=O)CNC(=O)[C@H](CC(C)C)NC(=O)[C@@H](N)CSSC[C@@H](C(=O)O)NC(=O)[C@H](C)NC(=O)[C@H](CCCCN)NC(=O)CNC1=O [C L G V L G K A C] (H-CLGVLGKAC-OH; disulfide 1-9)	360
CC(C)C[C@@H]1NC(=O)[C@H](C(C)C)NC(=O)CNC(=O)[C@H](CC(C)C)NC(=O)[C@@H](N)CSSC[C@@H](C(=O)O)NC(=O)CNC(=O)[C@H](CCCCN)NC(=O)CNC1=O [C L G V L G K G C] (H-CLGVLGKGC-OH; disulfide 1-9)	500
CC(C)C[C@@H]1NC(=O)[C@H](CCCCN)NC(=O)CNC(=O)[C@H](CC(C)C)NC(=O)[C@H](C(C)C)NC(=O)CNC(=O)[C@H](CC(C)C)NC(=O)[C@@H](N)CSSC[C@@H](C(=O)N2CCC[C@H]2C(=O)NCC(=O)O)NC1=O [C L G V L G K L C P G] (H-CLGVLGKLCPG-OH; disulfide 1-9)	460
CC(C)C[C@@H]1NC(=O)[C@H](C(C)C)NC(=O)CNC(=O)[C@H](CC(C)C)NC(=O)[C@@H](N)CSSC[C@@H](C(=O)O)NC(=O)[C@@H]2CCCN2C(=O)[C@H](CCCCN)NC(=O)CNC1=O [C L G V L G K P C] (H-CLGVLGKPC-OH; disulfide 1-9)	550
CC(C)C[C@@H]1NC(=O)[C@H](C(C)C)NC(=O)CNC(=O)[C@H](CC(C)C)NC(=O)[C@@H](N)CSSC[C@@H](C(=O)O)NC(=O)C(C)(C)NC(=O)[C@H](CCCCN)NC(=O)CNC1=O [C L G V L G K aiB C] (H-CLGVLGK[Aib]C-OH; disulfide 1-9)	>470
CC(C)C[C@@H]1NC(=O)[C@H](C(C)C)NC(=O)CNC(=O)[C@H](CC(C)C)NC(=O)[C@@H](N)CSSC[C@@H](C(=O)O)NC(=O)[C@@H](CC(C)C)NC(=O)[C@H](CCCCN)NC(=O)CNC1=O [C L G V L G K dL C] (H-CLGVLGK[dL]C-OH; disulfide 1-9)	140
CC(C)C[C@@H]1NC(=O)[C@H](C(C)C)NC(=O)CNC(=O)[C@H](CC(C)C)NC(=O)[C@@H](N)CSSC[C@@H](C(=O)O)NC(=O)[C@H](CC(C)C)N(C)C(=O)[C@H](CCCCN)NC(=O)CNC1=O [C L G V L G K nL C] (H-CLGVLGK[NMeL]C-OH; disulfide 1-9)	240
CC(C)C[C@@H]1NC(=O)[C@H](C(C)C)NC(=O)CNC(=O)[C@H](CC(C)C)NC(=O)[C@@H](N)CSSC[C@@H](C(=O)O)NC(=O)[C@H](c2ccccc2)NC(=O)[C@H](CCCCN)NC(=O)CNC1=O [C L G V L G K pG C] (H-CLGVLGK[Phg]C-OH; disulfide 1-9)	80
CC(C)C[C@@H]1NC(=O)[C@H](CCCN)NC(=O)CNC(=O)[C@H](CC(C)C)NC(=O)[C@H](C(C)C)NC(=O)CNC(=O)[C@H](CC(C)C)NC(=O)[C@@H](N)CSSC[C@@H](C(=O)O)NC1=O [C L G V L G Or L C] (H-CLGVLG[Orn]LC-OH; disulfide 1-9)	40
CC(C)C[C@@H]1NC(=O)[C@H](C(C)C)NC(=O)CNC(=O)[C@H](CC(C)C)NC(=O)[C@@H](N)CSSC[C@@H](C(=O)O)NC(=O)[C@H](CC(C)C)NC(=O)[C@@H]2CCCN2C(=O)CNC1=O [C L G V L G P L C] (H-CLGVLGPLC-OH; disulfide 1-9)	160
CC(C)C[C@@H]1NC(=O)[C@H](CCCNC(=N)N)NC(=O)CNC(=O)[C@H](CC(C)C)NC(=O)[C@H](C(C)C)NC(=O)CNC(=O)[C@H](CC(C)C)NC(=O)[C@@H](N)CSSC[C@@H](C(=O)O)NC1=O [C L G V L G R L C] (H-CLGVLGRLC-OH; disulfide 1-9)	160
CC(C)C[C@@H]1NC(=O)[C@H](C(C)C)NC(=O)CNC(=O)[C@H](CC(C)C)NC(=O)[C@@H](N)CSSC[C@@H](C(=O)O)NC(=O)[C@H](CC(C)C)NC(=O)C(C)(C)NC(=O)CNC1=O [C L G V L G aiB L C] (H-CLGVLG[Aib]LC-OH; disulfide 1-9)	460
CC(C)C[C@@H]1NC(=O)[C@H](C(C)C)NC(=O)CNC(=O)[C@H](CC(C)C)NC(=O)[C@@H](N)CSSC[C@@H](C(=O)O)NC(=O)[C@H](CC(C)C)NC(=O)[C@@H](CCCCN)NC(=O)CNC1=O [C L G V L G dK L C] (H-CLGVLG[dK]LC-OH; disulfide 1-9)	170
CC(C)C[C@@H]1NC(=O)[C@H](C(C)C)NC(=O)CNC(=O)[C@H](CC(C)C)NC(=O)[C@@H](N)CSSC[C@@H](C(=O)O)NC(=O)[C@@H](CC(C)C)NC(=O)[C@@H](CCCCN)NC(=O)CNC1=O [C L G V L G dK dL C] (H-CLGVLG[dK][dL]C-OH; disulfide 1-9)	150
CC(C)C[C@@H]1NC(=O)[C@H](C(C)C)NC(=O)CNC(=O)[C@H](CC(C)C)NC(=O)[C@@H](N)CSSC[C@@H](C(=O)O)NC(=O)[C@@H](CC(C)C)NC(=O)[C@@H](CC(C)C)NC(=O)CNC1=O [C L G V L G dL dL C] (H-CLGVLG[dL][dL]C-OH; disulfide 1-9)	140
